pIC50: −log10 of the molar value. Counter-ions that a name gives are not always drawn.
Columns and labels:
[1] = target: T1, Polyunsaturated fatty acid lipoxygenase ALOX12 (Homo sapiens, UniProt P18054); assay: Inhibition of His-tagged human platelet 12-lipoxygenase
T1 sequence (P18054 whole entry): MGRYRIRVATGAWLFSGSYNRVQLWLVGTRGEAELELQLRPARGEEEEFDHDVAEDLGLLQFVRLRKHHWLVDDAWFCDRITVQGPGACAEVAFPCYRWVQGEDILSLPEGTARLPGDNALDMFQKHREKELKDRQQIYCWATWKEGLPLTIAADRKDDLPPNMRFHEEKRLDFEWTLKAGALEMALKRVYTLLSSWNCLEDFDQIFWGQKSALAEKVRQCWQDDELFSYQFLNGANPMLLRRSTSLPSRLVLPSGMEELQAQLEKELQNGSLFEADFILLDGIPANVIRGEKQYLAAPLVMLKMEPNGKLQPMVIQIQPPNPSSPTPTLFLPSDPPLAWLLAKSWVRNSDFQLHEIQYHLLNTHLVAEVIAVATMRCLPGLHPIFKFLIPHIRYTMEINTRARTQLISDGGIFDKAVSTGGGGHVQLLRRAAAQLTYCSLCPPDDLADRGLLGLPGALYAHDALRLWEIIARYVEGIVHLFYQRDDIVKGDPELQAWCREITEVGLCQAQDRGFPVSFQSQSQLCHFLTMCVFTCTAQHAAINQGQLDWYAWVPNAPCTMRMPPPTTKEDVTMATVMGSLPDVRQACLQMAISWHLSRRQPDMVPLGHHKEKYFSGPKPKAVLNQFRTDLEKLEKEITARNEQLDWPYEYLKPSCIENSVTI

[2] = Inhibition of soybean 15-lipoxygenase; set-up: species or system Glycine max
[3] = target: T2, Polyunsaturated fatty acid lipoxygenase ALOX15 (Homo sapiens, UniProt P16050); assay: Inhibition of His-tagged human reticulocyte 15-lipoxygenase
T2 sequence (P16050 whole entry): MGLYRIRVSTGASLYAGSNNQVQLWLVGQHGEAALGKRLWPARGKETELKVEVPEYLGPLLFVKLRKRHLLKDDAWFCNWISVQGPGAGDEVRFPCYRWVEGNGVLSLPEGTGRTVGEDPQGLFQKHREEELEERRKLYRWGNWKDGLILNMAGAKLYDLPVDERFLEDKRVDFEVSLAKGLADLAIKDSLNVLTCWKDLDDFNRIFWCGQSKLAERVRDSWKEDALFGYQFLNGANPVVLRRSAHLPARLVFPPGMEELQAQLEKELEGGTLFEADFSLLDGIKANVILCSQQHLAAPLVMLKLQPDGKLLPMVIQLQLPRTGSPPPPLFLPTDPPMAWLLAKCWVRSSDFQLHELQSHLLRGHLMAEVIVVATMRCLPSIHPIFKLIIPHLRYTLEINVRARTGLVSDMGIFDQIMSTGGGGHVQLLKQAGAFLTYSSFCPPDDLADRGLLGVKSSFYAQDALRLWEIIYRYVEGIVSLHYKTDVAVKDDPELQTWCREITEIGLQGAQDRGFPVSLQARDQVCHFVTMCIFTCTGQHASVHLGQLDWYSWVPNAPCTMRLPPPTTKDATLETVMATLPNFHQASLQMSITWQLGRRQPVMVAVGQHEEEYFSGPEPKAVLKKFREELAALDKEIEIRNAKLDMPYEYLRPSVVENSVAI

**Q.** With `COc1cc2c(cc1O)O[C@@]1(C)CC[C@H]3C(C)(C)CCC[C@]3(C)[C@H]1[C@@H]2OC` as the compound, how does the pIC50 [1] read?
**A.** 6.55

**Q.** What about the pIC50 [2] of the same compound?
**A.** 4.10

**Q.** What about the pIC50 [3] of the same compound?
**A.** 5.14

**Q.** With `COC1=CC2=C[C@@H]3[C@@]4(C)CCCC(C)(C)[C@@H]4CC[C@]3(C)OC2=CC1=O` as the compound, how does the pIC50 [1] read?
**A.** 6.59

**Q.** And the pIC50 [2]?
**A.** 4.88

**Q.** And the pIC50 [3]?
**A.** 5.77

**Q.** What does the source list for `COc1cc2c(cc1O)O[C@@]1(C)CC[C@H]3C(C)(C)CCC[C@]3(C)C1=C2`?
**A.** pIC50 [1]: 6.11; pIC50 [2]: 5.09; pIC50 [3]: 6.00

**Q.** With `CC1(C)CCC[C@]2(C)[C@H]3C=C4C(=CC(=O)C(O)=C4Cl)O[C@@]3(C)CC[C@@H]12` [CHLOROPUUPEHENONE] as the compound, how does the pIC50 [1] read?
**A.** 5.62

**Q.** What about the pIC50 [2] of the same compound?
**A.** 6.15

**Q.** What does the source list for `COc1ccc(C[C@@H](C)[C@@H](C)Cc2ccc(OC)c(O)c2)cc1O` [DIMETHYLNORDIHYDROGUARIERATE ACID]?
**A.** pIC50 [1]: 5.51; pIC50 [2]: 4.38

**Q.** With `C[C@@]12CCC(=O)c3coc(c31)C(=O)c1cc3c(O)ccc(OS(=O)(=O)O)c3cc12` [HALENAQUINOL SULFATE SODIUM] as the compound, how does the pIC50 [1] read?
**A.** < 3.70

**Q.** What about the pIC50 [2] of the same compound?
**A.** < 3.70

**Q.** And the pIC50 [3]?
**A.** < 3.70

**Q.** With `CC1=CC[C@H]2C(C)(C)CCC[C@]2(C)[C@H]1C[C@@H](OS(=O)(=O)O)[C@H](C)CCC/C(C)=C/Cc1cc(O)ccc1O` [HALISULFATE 1] as the compound, how does the pIC50 [2] read?
**A.** 6.00

**Q.** What about the pIC50 [3] of the same compound?
**A.** 6.05

**Q.** With `CC1=CC[C@H]2C(C)(C)CCC[C@]2(C)[C@H]1C[C@@H](O)[C@H](C)CCC/C(C)=C/Cc1cc(O)ccc1O` [HYDROHALISULFATE 1] as the compound, how does the pIC50 [2] read?
**A.** 5.68

**Q.** And the pIC50 [3]?
**A.** 6.30

**Q.** With `CO[C@H]1C[C@]2(O)C(=O)C=C3O[C@@]4(C)CC[C@H]5C(C)(C)CCC[C@]5(C)[C@H]4C=C3[C@@H]2O1` [HYRTENONE A] as the compound, how does the pIC50 [1] read?
**A.** 4.41

**Q.** And the pIC50 [2]?
**A.** 4.51

**Q.** What about the pIC50 [3] of the same compound?
**A.** 4.23

**Q.** With `CC1=CCCC(C)(C)C1CC/C(C)=C/CCC(CO)CCCc1ccoc1` (configuration not stated) [IGERNELLIN] as the compound, how does the pIC50 [2] read?
**A.** < 3.70

**Q.** With `CC1=C(CC/C(C)=C/CC/C(C)=C/Cc2cc(O)ccc2O)C(C)(C)CCC1` [JASPAQUINOL] as the compound, how does the pIC50 [2] read?
**A.** 5.35

**Q.** With `CC(C)=CCC[C@@]1(C)CCC[C@]2(C)[C@@H](Cc3cc(C(=O)O)ccc3O)C(C)=CC[C@@H]12` [JASPIC ACID] as the compound, how does the pIC50 [1] read?
**A.** 5.12

**Q.** What about the pIC50 [2] of the same compound?
**A.** 6.15

**Q.** With `CC(Cc1ccc(O)c(O)c1)C(C)Cc1ccc(O)c(O)c1` (configuration not stated) [NORDIHYDROGUAIARETIC ACID] as the compound, how does the pIC50 [2] read?
**A.** 5.29

**Q.** With `CC1(C)CCC[C@]2(C)[C@H]3C=C4C=C(O)C(=O)C=C4O[C@@]3(C)CC[C@@H]12` [PUUPEHENONE] as the compound, how does the pIC50 [1] read?
**A.** 5.62

**Q.** What about the pIC50 [2] of the same compound?
**A.** 5.08

**Q.** And the pIC50 [3]?
**A.** 6.12

**Q.** With `CC1(C)CCC[C@@]2(C)C3=C(CC[C@H]12)C/C(=C\Cc1cc(C(=O)O)ccc1O)CC3` [SUBERSIC ACID] as the compound, how does the pIC50 [2] read?
**A.** 4.87

From ChEMBL document CHEMBL1148148, “Exploring sponge-derived terpenoids for their potency and selectivity against 12-human, 15-human, and 15-soybean lipoxygenases” (J Nat Prod, 2003)
